Data taken from patent US5045566A, “Novel imidate insecticides” (ICI Americas Inc., priority 1989, dated 1991).

How the values were obtained:
Format in all cases: in vivo
[1] = tested on: Cabbage Looper [Trichoplusia ni (Hubner)]; assay: Cabbage looper leaf dip (CL), 3-5 days; conditions: percent in solution, second-instar larvae
Summary of the method: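 Squash cotyledons dipped in test solution (acetone-water 50-50, ≤0.1%), dried, offered to 5 second-instar larvae; mortality after 3-5 days gives LC50.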

[2] = tested on: Aster Leafhopper [Macrosteles fascifrens (Stal)]; assay: Aster leafhopper on dipped oat seedlings (LH), 48 hours; conditions: percent in solution, adults/nymphs
Protocol: The compounds in Tables 1 and 2 above were tested for insecticidal activity using the following testing procedures. LC50 values, based on the results of these tests and calculated according to dosage-mortality curves, are expressed in Table 3.
Aster Leafhopper [Macrosteles fascifrens (Stal)]
Oat seedlings (Avena sp) were grown in a commercial potting soil in cups. When the plants were approximately 10 cm tall they were thinned to three plants per cup and dipped for 2-3 seconds in 50-50 acetone-water solutions of the test compounds. When the plants had dried, a clear plastic tube was placed over them and the bottom end pressed into the cup. Ten aster leafhopper adults/nymphs were then placed in each tube and the tops of the tubes covered with white organdy cloth. Mortality counts were made after 48 hours. Test concentrations ranged from 0.05% down to that at which 50% mortality occurred. The LC50 values are expressed below in Table 3 under the heading "LH" in terms of the percent of the test compound in the solution.

[3] = tested on: Tobacco Budworm [Heliothis virescens (Fabricius)] eggs; assay: Tobacco budworm eggs (TBW-E); conditions: percent in solution; 2-day old eggs
Summary of the method: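 Step 1: dip 2-day old egg patches in acetone test solutions (top concentration 0.1%). Step 2: hold in dishes with rearing medium at 78° F. Step 3: record mortality after control hatch and feeding.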

[4] = tested on: Housefly [Musca domestica]; assay: Housefly contact mortality in dishes (HF), 48 hours; conditions: μg of test compound per 25 female flies
Summary of the method: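 Acetone solutions (with 0.01% peanut oil) dried onto dish bottoms, then 25 female flies, 1-2 days old, caged over the residue with sugar water. Mortality scored at 48 hours; LC50 from dosage-mortality curves, in μg per 25 female flies, top level 100 μg.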

[5] = tested on: Black Bean Aphid [Aphis fabae (Scop.)]; assay: Black bean aphid spray test on nasturtium (BBA), 48 hours; conditions: percent of test compound in sprayed solution
Summary of the method: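 LC50, given as percent test compound in the sprayed liquid, was calculated from dosage-mortality curves using concentrations from 0.05% downward. Sprays in 50:50 acetone-water went to runoff on ~5 cm nasturtiums carrying 25-50 aphids of mixed ages, one day after infestation. Deaths were counted 48 h later under greenhouse conditions.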

[6] = tested on: Maize weevil [Sitophilus zeamais (Motschulsky)]; assay: Maize weevil on dipped corn seeds (MW), 48 hours; conditions: percent in solution, adult weevils
Summary of the method: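 LC50, given as percent of compound in dipping solution, comes from dosage-mortality curves over concentrations descending from 0.01%. Four corn seeds soaked 2-3 s in 50:50 acetone:water solution were dried and held with 10 adult weevils, about 25° C, mortality read after 48 h.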

| Compound | LC50 CL [1] | LC50 LH [2] | LC50 TBW E (eggs) [3] | LC50 HF [4] | LC50 BBA [5] | LC50 MW [6] |
| --- | --- | --- | --- | --- | --- | --- |
| CC(C)CC(=Nc1cc(Cl)cc(Cl)c1)OCc1cccc(Oc2ccccc2)c1 [Compound 10] | 0.01% | > 0.05% | > 0.1% | > 100 µg | 0.05% |  |
| CC(C)C(=Nc1cc(Cl)cc(Cl)c1)OCc1cccc(Oc2ccccc2)c1 [Compound 16] | 0.004% | 0.0005% | 0.04% | 20 µg | 0.0004% |  |
| CC(C)C(=Nc1cc(Cl)c(Cl)c(Cl)c1)OCc1cccc(Oc2ccccc2)c1 [Compound 20] | 0.0025% | 0.003% | < 0.1% | 64 µg | 0.0006% |  |
| Fc1ccc(N=C(OCc2cccc(Oc3ccccc3)c2)C(Cl)=C(Cl)Cl)cc1 [Compound 49] | 0.007% | > 0.05% | > 0.05% | > 100 µg | 0.05% |  |
| CC(C)C(=Nc1c(F)c(F)cc(F)c1F)OCc1cccc(Oc2ccccc2)c1 [Compound 57] | 0.004% | 0.0005% | 0.1% | > 100 µg | 0.03% |  |
| COc1ccc(OC)c(N=C(OCc2cccc(Oc3ccccc3)c2)C(C)C)c1 [Compound 69] | 0.09% | > 0.05% | > 0.1% | > 100 µg | > 0.05% |  |
| CC(C)C(=Nc1ccc(OC(F)(F)F)cc1)OCc1cccc(Oc2ccccc2)c1 [Compound 70] | < 0.1% | > 0.05% | 0.01% | < 100 µg | < 0.05% |  |
| CC(C)C(=Nc1ccc(C(F)(F)F)c(Cl)c1)OCc1cccc(Oc2ccccc2)c1 [Compound 83] | 0.007% | > 0.05% | > 0.1% | > 100 µg | 0.05% |  |
| Cc1ccc(N=C(OCc2cccc(Oc3ccccc3)c2)C(C)C)cc1Cl [Compound 90] | > 0.1% | 0.001% | 0.016% | > 100 µg | 0.0003% |  |
| COc1c(Cl)cc(N=C(OCc2cccc(Oc3ccccc3)c2)C(C)C)cc1Cl [Compound 91] | 0.002% | 0.003% | > 0.01% | 37 µg | 0.001% |  |
| CC(C)C(=Nc1c(Cl)cc([N+](=O)[O-])cc1Cl)OCc1cccc(Oc2ccccc2)c1 [Compound 92] | 0.015% | > 0.05% | > 0.1% | > 100 µg | > 0.05% |  |
| Clc1ccc(N=C(OCc2cccc(Oc3ccccc3)c2)C(Cl)Cl)c2ccccc12 [Compound 98] | 0.016% | > 0.05% | 0.1% | > 100 µg | > 0.05% |  |
| Cc1c(Cl)cc(N=C(OCc2cccc(Oc3ccccc3)c2)C(C)C)cc1Cl [Compound 101] | 0.0045% | 0.0008% | > 0.1% | 81 µg | 0.002% |  |
| CCOC(=O)c1cc(N=C(OCc2cccc(Oc3ccccc3)c2)C(C)C)ccc1Cl [Compound 102] | 0.075% | > 0.05% | > 0.1% | > 100 µg | 0.05% |  |
| CC(C)(Cl)C(=Nc1ccc(C#N)c(Cl)c1)OCc1cccc(Oc2ccccc2)c1 [Compound 108] | 0.002% | > 0.01% | > 0.1% | 44 µg | 0.01% |  |
| CC(C)C(=Nc1c(F)cc(F)cc1Br)OCc1cccc(Oc2ccccc2)c1 [Compound 129] | 0.005% | 0.01% | > 0.1% | > 100 µg | 0.03% |  |
| CC(C)C(=Nc1ccc(Br)cc1)OCc1cccc(Oc2ccccc2)c1 [Compound 131] | 0.0045% | 0.005% | > 0.1% | 17 µg | 0.003% |  |
| CCCC(=Nc1ccc2c(c1)OCO2)OCc1cccc(Oc2ccccc2)c1 [Compound 188] | 0.002% | > 0.05% | > 0.1% | 12 µg |  |  |
| CC(C)C(=Nc1cc(F)ccc1Cl)OCc1ccc(F)c(Oc2ccc(F)cc2)c1 [Compound 303] | 0.0015% | 0.0005% | > 0.1% | > 100 µg |  |  |
| CC(C)C(=Nc1ccc2c(c1)OCO2)OCc1cccc(Oc2ccc(F)cc2)n1 [Compound 465] | 0.0017% | 0.0025% | 0.027% | 8 µg |  |  |
| CC(C)C(=Nc1ccc(Cl)c(C(F)(F)F)c1)OCc1cccc(Oc2ccccc2)n1 [Compound 555] | 0.002% |  | > 0.1% | < 100 µg | 0.0035% | > 0.01% |
| CC(C)C(=Nc1ccc2c(c1)OC(F)(F)O2)OCc1cccc(Oc2ccccc2)n1 [Compound 556] | 0.0007% |  | 0.04% | < 100 µg | 0.0035% | > 0.01% |
| CC(C)C(=Nc1cccc(Br)c1)OCc1cccc(Oc2ccc(Cl)cc2)n1 [Compound 557] | 0.0004% |  | > 0.1% | < 100 µg | 0.0015% | > 0.01% |
| CC(C)C(=Nc1ccc(F)c(Br)c1)OCc1cccc(Oc2ccccc2)n1 [Compound 558] | 0.00045% |  | > 0.1% | < 100 µg | 0.0012% | > 0.01% |
| CC(C)C(=Nc1ccc(F)c(F)c1)OCc1cccc(Oc2ccc(Cl)cc2)n1 [Compound 559] | 0.00027% |  | 0.017% | < 100 µg | 0.0035% | > 0.01% |
| C=C(C)C(=Nc1ccc(C(F)(F)F)cc1)OCc1cccc(Oc2ccc(Cl)cc2)n1 [Compound 560] | 0.0015% |  | < 0.1% | < 100 µg | 0.0025% | > 0.01% |
